The term EC50 denotes the concentration needed to bring the measured effect to its halfway point. A high value points to lower potency in that assay.

Molecules are shown by their SMILES.

This assay deals with T1, Peroxisome proliferator-activated receptor gamma (Homo sapiens, UniProt P37231).
T1 sequence (P37231 whole entry): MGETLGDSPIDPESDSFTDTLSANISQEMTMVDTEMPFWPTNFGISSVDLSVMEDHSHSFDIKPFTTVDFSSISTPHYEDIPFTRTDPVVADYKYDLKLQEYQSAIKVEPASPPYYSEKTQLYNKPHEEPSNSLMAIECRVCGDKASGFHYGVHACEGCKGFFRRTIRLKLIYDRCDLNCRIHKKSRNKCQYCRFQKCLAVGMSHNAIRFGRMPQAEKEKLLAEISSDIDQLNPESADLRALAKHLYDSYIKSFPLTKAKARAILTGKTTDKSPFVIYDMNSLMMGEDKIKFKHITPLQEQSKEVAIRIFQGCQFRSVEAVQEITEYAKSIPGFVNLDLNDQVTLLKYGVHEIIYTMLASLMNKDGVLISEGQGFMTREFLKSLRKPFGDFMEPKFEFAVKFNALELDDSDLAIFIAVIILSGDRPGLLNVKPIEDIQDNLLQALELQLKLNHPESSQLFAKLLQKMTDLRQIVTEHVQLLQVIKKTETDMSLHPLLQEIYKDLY
The assay is described as follows: Partial agonist activity at human PPARgamma expressed in MG-63 cells by reporter gene-based transactivation assay. For orientation: A reporter such as luciferase makes a cellular process visible.

With `COc1cc(O)c2c(c1C(=O)NCc1cc(O)cc3ccccc13)OC1=CC(=O)C(C(C)=O)C(=O)[C@]12C` (some centres not stated), the EC50 amounted to 130 nM.

With `COC(=O)CCc1cc(CNC(=O)c2c(OC)cc(O)c3c2OC2=CC(=O)C(C(C)=O)C(=O)[C@]23C)c2ccccc2c1` (some centres not stated), the EC50 came to 130 nM.

For the origin of these results see BindingDB's records for doi:10.1016/j.bmcl.2011.12.066 (Daiichi Sankyo, 2012).
